Data reported in paper PMC8146505, “Enantioselective Interactions of Anti-Infective 8-Aminoquinoline Therapeutics with Human Monoamine Oxidases A and B” (Pharmaceuticals, 2021).

Biological target: T1, recombinant human MAO-B (Homo sapiens, UniProt P27338)
T1 construct: purchased BD Biosciences (Bedford, MA, USA)
T1 sequence (P27338 1-520): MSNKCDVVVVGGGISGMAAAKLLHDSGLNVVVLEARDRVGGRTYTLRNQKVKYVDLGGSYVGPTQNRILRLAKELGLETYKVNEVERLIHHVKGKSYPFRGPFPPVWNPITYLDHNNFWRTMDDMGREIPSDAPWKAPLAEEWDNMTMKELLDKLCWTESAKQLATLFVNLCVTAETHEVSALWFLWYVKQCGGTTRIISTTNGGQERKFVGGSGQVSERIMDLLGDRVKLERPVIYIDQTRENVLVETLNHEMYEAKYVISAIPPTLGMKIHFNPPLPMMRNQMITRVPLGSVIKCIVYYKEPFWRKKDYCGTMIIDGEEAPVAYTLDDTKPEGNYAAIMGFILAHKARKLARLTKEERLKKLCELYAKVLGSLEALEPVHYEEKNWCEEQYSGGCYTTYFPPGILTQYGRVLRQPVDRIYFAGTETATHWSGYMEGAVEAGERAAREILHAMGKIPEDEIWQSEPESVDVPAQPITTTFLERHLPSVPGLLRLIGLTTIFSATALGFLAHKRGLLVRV
Test: In vitro MAO inhibition assay (kynuramine oxidative deamination), IC50
Type: biochemical
Conditions: rhMAO-B, kynuramine 50 μM, steady-state, mean ± SD
Experimental: (§1) A fixed concentration of kynuramine substrate and varying concentrations of the test compounds were used to determine the IC50 values. Kynuramine concentrations for MAO-A and -B assays were 80 μM and 50 μM, respectively. The concentrations of PQ and NPC1161 enantiomers varied from 0.1 μM to 200 μM, for the rhMAO-A and -B enzyme activity inhibition. The test compounds were dissolved in DMSO, diluted in the buffer solution just before the assay, and pre-incubated with the enzyme (MAO-A (5 μg/mL) or -B (12.5 μg/mL)) for 10 min at 37 °C. […] The enzymatic reactions were initiated by the addition of the substrate (kynuramine 80 and 50 μM, for MAO-A and -B, respectively) and incubated for 20 min at 37 °C. The enzyme reactions were terminated by the addition of 78 μL of 2N NaOH to each well. The formation of 4-hydroxyquinoline (the enzyme reaction end product) was recorded fluorometrically on a SpectraMax M5 fluorescence plate reader (Molecular Devices, Sunnyvale, CA, USA) with 320 nm excitation and 380 nm emission wavelengths, using the Soft MaxPro-6 program. The inhibition of enzyme activity was calculated in terms of product formation as a percentage of corresponding controls (enzyme–substrate reaction without inhibitors). Assay controls, to define the interference of the test compounds with the fluorescence measurements, were set up simultaneously, and the enzyme or substrate was added after stopping the reaction.
(§2) The enzyme assays were performed at a steady-state fixed concentration of the substrate kynuramine (80 μM for MAO-A and 50 μM for MAO-B) and different concentrations of the test compounds (PQ and NPC1161 enantiomers). The dose–response enzyme-inhibition curves were generated using Microsoft® Excel (Figure 2), and the IC50 values were computed with XLfit®.

SMILES	IC50 [µM]
COc1cc(N[C@H](C)CCCN)c2ncccc2c1 [(R)-(−)-Primaquine]	117 ± 8.82
COc1ccc2c(c1)[nH]c1c(C)nccc12 [Harmine]	53.1 ± 3.91
COc1cc(NC(C)CCCN)c2ncccc2c1 (racemic) [(RS)-(±)-Primaquine, Primaquine]	107 ± 1.18
COc1cc(C)c2c(Oc3cccc(C(F)(F)F)c3)c(OC)cc(NC(C)CCCN)c2n1 (stereo not drawn) [Tafenoquine, 4-N-[2,6-dimethoxy-4-methyl-5-[3-(trifluoromethyl)phenoxy]quinolin-8-yl]pentane-1,4-diamine]	0.95 ± 0.07
COc1cc(N[C@@H](C)CCCN)c2ncccc2c1 [(S)-(+)-Primaquine]	170 ± 15.3

Biological target: T2, recombinant human MAO-A (Homo sapiens, UniProt P21397)
T2 construct: purchased BD Biosciences (Bedford, MA, USA)
T2 sequence (P21397 1-527): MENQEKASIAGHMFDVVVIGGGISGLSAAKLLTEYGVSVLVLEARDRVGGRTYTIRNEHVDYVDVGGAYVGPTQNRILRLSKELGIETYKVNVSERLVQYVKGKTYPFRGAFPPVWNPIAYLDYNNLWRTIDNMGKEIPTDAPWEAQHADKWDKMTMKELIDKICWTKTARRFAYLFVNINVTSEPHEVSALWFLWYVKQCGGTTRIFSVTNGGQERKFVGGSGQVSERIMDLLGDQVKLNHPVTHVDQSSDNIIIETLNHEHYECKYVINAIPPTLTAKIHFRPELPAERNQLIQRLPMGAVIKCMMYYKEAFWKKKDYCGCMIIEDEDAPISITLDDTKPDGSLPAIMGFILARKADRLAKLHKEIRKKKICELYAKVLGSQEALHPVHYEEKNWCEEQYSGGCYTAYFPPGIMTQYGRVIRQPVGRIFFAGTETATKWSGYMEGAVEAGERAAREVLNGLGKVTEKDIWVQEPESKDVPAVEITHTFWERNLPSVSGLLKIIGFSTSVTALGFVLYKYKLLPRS
Test: as above
Type: biochemical
Conditions: rhMAO-A, kynuramine 80 μM, steady-state, mean ± SD
Experimental: as §1, §2

SMILES	IC50 [µM]
COc1cc(C)c2c(Oc3cccc(C(F)(F)F)c3)c(OC)cc(NC(C)CCCN)c2n1 (stereo not drawn) [Tafenoquine, 4-N-[2,6-dimethoxy-4-methyl-5-[3-(trifluoromethyl)phenoxy]quinolin-8-yl]pentane-1,4-diamine]	2.7 ± 0.14
